Columns and labels:
Assay type in all cases: in vivo
Adult male AJ mice = experiment: Tail suspension test (TST); parameters: key: −: No decrease in Mean Total Time Immobile; +: Significant decrease in Mean Total Time Immobile (P < 0.05 vs vehicle); settings: 3 mg/kg PO
Text: The tail suspension test (TST) is a rodent screening test for potential (human) antidepressant drugs. It is based on the assumption that an animal will actively try to escape an aversive (stressful) stimulus. If escape is impossible, the animal will eventually stop trying (“give up”). In the TST, a mouse is suspended by the tail so that its body dangles in the air, head downward. Mice initially struggle to face upward and climb to a solid surface. When the animal stops struggling and hangs immobile it is considered to have “given up”. Shorter periods of immobility are characteristic of antidepressant-like activity. Accordingly, longer periods of immobility are considered indicative of a depressive-like state. It has been shown that treatment with an antidepressant drug will decrease the time the animal spends immobile. See generally L. Steru et al., Psychopharmacology (Berl). 1985; 85(3):367-70; B. Thierry et al., Psychopharmacology 1986; 90:284-85.
Adult male AJ mice from Jackson Laboratories received vehicle (sterile water) or test compound orally by gavage, or the positive control desipramine (20 mg/kg, i.p.), in 10 mL/kg injection volumes, 30 min before being subjected to the Tail Suspension Test. In this test, mice are placed in the Tail Suspension chambers (white polyvinylchloride cubicles measuring 33×33×31.75 cm Med Associates, Inc. St. Albans, Vt.) by a piece of transparent (Scotch®) tape attached to the tail, from about the mid-tail, with approximately 2 cm of tape past the end of the tail for 10 min during which the time spent immobile is measured. A reduction in total time immobile relative to the vehicle condition indicates an antidepressant drug-like response.

Male C57Bl/6J mice [1] = experiment: Marble burying test; parameters: key: −: No reduction in number of marbles buried; +: Significant reduction in number of marbles buried (P < 0.05 vs vehicle)
Method: The marble burying assay is used to evaluate the anxiolytic activity of a test compound. After placement in a novel cage containing glass marbles, mice will bury the marbles. Acute administration of anxiolytic agents, as well as antidepressants, decrease this activity at non-sedating doses. Male C57Bl/6J mice from Jackson Laboratories were used in this study and were acclimatized to the experimental room for at least 1 hour prior to testing. Mice (n=10 per group) were administered sterile water or test compound intraperitoneally (i.p.) or orally by gavage (p.o.), or the positive control chlordiazepoxide (15 mg/kg, i.p.), in 10 mL/kg injection volumes, and returned to their home cages for a 30-minute pretreatment period. The mice were then placed individually in clean cages, containing hard wood bedding and twenty black marbles placed in spaced rows of 4×5. After a 30-minute test session, the number of buried marbles was counted. A marble was considered buried if it was pushed at least two thirds into the bedding. Locomotor activity was monitored by measuring the distance traveled using an overhead camera and Video Tracker Software (ViewPoint Life Sciences Software, France). A reduction in the number of marbles buried relative to the vehicle condition indicates an anxiolytic drug-like effect.

Male C57Bl/6J mice [2] = experiment: Amphetamine induced hyperlocomotion assay; parameters: key: #: Significant increase in total distance traveled (P < 0.05 vs vehicle + AMPH group); −: No change in total distance traveled; Significant decrease in total distance traveled (P < 0.05 vs vehicle + AMPH group); settings: 3 mg/kg PO Compound + AMPH
Method: Psychostimulants such as amphetamine (AMPH) are frequently used to induce or mimic a manic-like or psychotic-like state. AMPH administration to rodents increases horizontal locomotion, vertical rearing and repetitive stereotyped behaviors, and typical antipsychotic drugs, such as haloperidol, can reduce these behaviors. The antimanic/antipsychotic-like effects of test compounds were evaluated in male C57Bl/6J mice from Jackson Laboratories Mice were acclimatized to the experimental room for at least 1 hour prior to testing. The mice (n=10 per group) were administered vehicle or test compound orally by gavage (10 mL/kg injection volume) and placed individually in the novel open field (OF) chambers (Med Associates) for 30 minutes of baseline activity measurement. Mice were then injected with either water or AMPH (4 mg/kg, i.p., 10 mL/kg) and placed back in the same individual OF chambers for a 60-minute testing session during which the effects of test compounds on stimulant-induced behaviors (total distance traveled, rearing and stereotypy) were measured. A reduction in total distance traveled relative to the vehicle+AMPH condition indicates an antimanic/antipsychotic drug-like response.

Male C57Bl/6J mice [3] = experiment: Prepulse inhibition of startle (PPI); parameters: key: −: No change in PPI; +: Significant increase in PPI at one pre-pulse intensity (P < 0.05 vs vehicle); ++: Significant increase in PPI at two pre-pulse intensities (P < 0.05 vs vehicle); +++: Significant increase in PPI at three pre-pulse intensities (P < 0.05 vs vehicle); settings: 3 mg/kg PO
Text: The acoustic startle is an unconditioned reflex response to an external auditory stimulus. Prepulse inhibition of startle (PPI) refers to the reduction in the startle response caused by the presentation of a low-intensity auditory stimulus prior to the startle stimulus. The PPI paradigm is used for the study of schizophrenia and antipsychotic action due to the similarities between the results from human and rodent studies. PPI has been used as a tool for the assessment of deficiencies in sensory-motor gating observed in schizophrenia and to screen for potential antipsychotic drugs. Various psychotomimetic drugs, such as phencyclidine (PCP), can disrupt PPI. In mice, antipsychotic drugs such as haloperidol can increase PPI and clozapine can reverse the disruption of PPI induced by PCP.
Male C57Bl/6J mice from Jackson Laboratories were placed in the PPI chambers (Med Associates) for a 5 min session of white noise (70 dB) habituation. After the habituation period, the test session was initiated. The session started with a habituation block of 6 presentations of the startle stimulus alone, followed by 10 PPI blocks, each of which consisted of 6 different types of trials. Trial types were: ‘null’ (no stimuli), ‘startle’ (120 dB), ‘startle plus prepulse’ (4, 8, and 12 dB over background noise, i.e., 74, 78, or 82 dB) and ‘prepulse’ (82 dB). Trial types were presented in a random order within each block. Each trial started with a 50 ms stimulus-free period during which baseline movements were recorded. This was followed by a subsequent 20 ms period during which the prepulse stimulus was presented and responses to the prepulse measured. After a further 100 ms period, the startle stimulus was presented for 40 ms and responses recorded for 100 ms from startle onset. Responses were sampled every ms. The inter-trial interval was variable with an average of 15 s (range from 10 to 20 s). In ‘startle’ trials, the basic auditory startle response was measured. The basic startle response was calculated as the mean startle response of all ‘startle’ trials (i.e., excluding the first habituation block). In ‘startle plus prepulse’ trials, the degree of inhibition of the normal startle was calculated and expressed as a percentage of the basic startle response.
Mice were treated with vehicle or test compound orally by gavage, or haloperidol (1 mg/kg, i.p.), in 10 mL/kg injection volumes, 30 min prior to PPI test. The PPI enclosures were cleaned following each test. An increase in the percent PPI relative to the vehicle condition indicates an antipsychotic drug-like response.

compound-treated mice = experiment: Neuropharmacological assay (SmartCube): behavioral activity signature and minimal effective dose; settings: for AD: ADHD (probability of activity signature) / AG: analgesic (probability of activity signature) / AX: anxiolytic (probability of activity signature) / CE: cognitive enhancer (probability of activity signature) / DP: anti-depressant (probability of activity signature) / MS: mood stabilizer (probability of activity signature) / PS: anti-psychotic (probability of activity signature) / SD: sedative hypnotic (probability of activity signature) / UN: uncharacterized CNS activity (probability of activity signature): i.p. 15 min before test, most efficacious dose(s)
Procedure, shortened: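 Video-recorded behavior is compared algorithmically against a reference-compound database, yielding class probabilities (best dose reported). Compounds given i.p. in NMP/PEG/propylene glycol 15 min pre-test at 3 doses; potency as MED, the dose (mpk, range usually 0.3–30) reaching ≥50% total activity.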

male Sprague-Dawley rats = experiment: Stress induced hyperthermia (SIH) assay; parameters: key: −: No change in Delta T ([…]T); +: Significant decrease in Delta T ([…]T) (P < 0.05 vs vehicle)
Text: Stress-induced hyperthermia (SIH), mediated by the autonomic nervous system, is well known to occur prior to and during exposure to stress and/or anxiety-inducing situations. In many human anxiety disorders, it occurs as an integral part of the pathology and is often considered a representative symptom of the disease, e.g. in generalized anxiety disorder as defined in DSM-IV. In rodents, acute administration of anxiolytic drugs, such as buspirone or chlordiazepoxide (CDP), are known to reduce the SIH response to stressors such as handling, noise, heat, novelty, or pain. The test involves two measures of rectal temperature repeated in the same animal with a 10-minute interval. On the day prior to testing, male Sprague-Dawley rats from Envigo (n=10 per group) were brought to the experimental room approximately one hour before scheduled lights out and singly housed overnight with food and water ad libitum. On the morning of the experiment, animals were first injected with either vehicle or test compound orally by gavage, or CDP (10 mg/kg, i.p.). One hour following injection, each animal was removed from the holding cage and held in a supine position while the rectal temperature was measured by slowly inserting a rectal probe into the animal's rectum at a length of approximately 0.5 cm. The rectal probe was attached to a PhysiTemp digital thermometer (Fisher Scientific) which provides temperature readings at 0.1° C. accuracy. The probe remained inside the animal for approximately 5 seconds or until body temperature reaches stability. This temperature was recorded as the baseline rectal temperature (T1). The animal was immediately placed back to the holding cage and after a 10-min interval the second rectal temperature (T2) was taken using the same procedure as in measuring T1. Before each insertion, the rectal probe was cleaned with an alcohol pad and lubricated with sterile K-Y jelly. All SIH studies were conducted between 8:00-11:00 a.m. The SIH response was calculated as the difference in temperature between the second and first temperature reading (Delta T, […]T). A reduction in […]T relative to the vehicle condition indicates an anxiolytic drug-like response.

[4] = MED = dose having 50% or more total activity

SMILES	Mean Total Time Immobile (Adult male AJ mice)	Total Distance Traveled (Male C57Bl/6J mice [2])	Effect on Pre-Pulse Inhibition (PPI) (Male C57Bl/6J mice [3])	Marbles Buried (Male C57Bl/6J mice [1]; 3 mg/kg (p.o.))	AD: ADHD (probability of activity signature) (compound-treated mice)	AG: analgesic (probability of activity signature) (compound-treated mice)	AX: anxiolytic (probability of activity signature) (compound-treated mice)	CE: cognitive enhancer (probability of activity signature) (compound-treated mice)	DP: anti-depressant (probability of activity signature) (compound-treated mice)	MS: mood stabilizer (probability of activity signature) (compound-treated mice)	PS: anti-psychotic (probability of activity signature) (compound-treated mice)	SD: sedative hypnotic (probability of activity signature) (compound-treated mice)	UN: uncharacterized CNS activity (probability of activity signature) (compound-treated mice)	Marbles Buried (Male C57Bl/6J mice [1]; 3 mg/kg (i.p.))	Marbles Buried (Male C57Bl/6J mice [1]; 10 mg/kg (i.p.))	Delta T ([…]T) (male Sprague-Dawley rats; 10 mg/kg PO)	Delta T ([…]T) (male Sprague-Dawley rats; 30 mg/kg PO)	other results
N[C@@H]1COCc2ccc3ccccc3c21 (single isomer, unassigned) [Compound 117]	−	−	−															Marbles Buried (Male C57Bl/6J mice [1]; 1 mg/kg (p.o.)): −
N[C@H]1COCc2ccc3ccccc3c21 (single isomer, unassigned) [Compound 118]	−	−	−	−														
C[C@@H]1OCc2ccccc2[C@H]1N (single isomer, unassigned) [Example 152]					+ (LOQ ≤ + <5%)	++ (5% ≤ ++ <25%)	+++ (25% ≤ +++ <50%)	++ (5% ≤ ++ <25%)	++ (5% ≤ ++ <25%)	+ (LOQ ≤ + <5%)	++ (5% ≤ ++ <25%)	+ (LOQ ≤ + <5%)	+++ (25% ≤ +++ <50%)	−	+	+	+	Potency: minimal effective dose (MED) (compound-treated mice; [4]): A (≤3 mpk); Delta T ([…]T) (male Sprague-Dawley rats; 1 mg/kg PO): +; Delta T ([…]T) (male Sprague-Dawley rats; 3 mg/kg PO): +
Cc1cccc2c1[C@@H](N)[C@@H](C)OC2 (single isomer, unassigned) [Example 170]					+ (LOQ ≤ + <5%)	++ (5% ≤ ++ <25%)	++ (5% ≤ ++ <25%)	++ (5% ≤ ++ <25%)	++ (5% ≤ ++ <25%)	+ (LOQ ≤ + <5%)	++ (5% ≤ ++ <25%)	+ (LOQ ≤ + <5%)	++++ (50% ≤ ++++)	−	+	+	+	Potency: minimal effective dose (MED), binned (compound-treated mice; [4]): A (≤3 mpk)
Cc1ccc2c(c1)[C@H](N)COC2 [Compound 123]	−	#	−	−														
Cc1ccc2c(c1)[C@@H](N)COC2 [Compound 124]	−	−	−	−														

Source: patent US11077090B2, “Compounds and compositions and uses thereof” (Sunovion Pharmaceuticals Inc., priority 2016, dated 2021)
